Experiment [1] deals with Plasmodium falciparum. The experiment can be described thus: Antiplasmodial activity against Plasmodium falciparum NF54 infected in human erythrocytes after 72 hrs by geimsa staining. The format is functional, organism-based. Particulars: for IC50: NF54, 72 h.
Experiment [2] has as its system Plasmodium falciparum. The experiment in a line: Antiplasmodial activity against Plasmodium falciparum NF54 infected in human erythrocytes assessed as decrease in parasitemia measured on day 1 post-treatment by geimsa staining (reference value: 0.65 +/- 02%). The format is functional. Set-up: scale not given: the % may be the effect or the level left.
For experiment [3], the system named is Plasmodium falciparum. The experiment in a line: Antiplasmodial activity against Plasmodium falciparum NF54 infected in human erythrocytes assessed as decrease in parasitemia measured on day 2 post-treatment by geimsa staining (reference value: 1.1 +/- 0.09%). The format is functional. Set-up: scale not given: the % may be the effect or the level left.
For experiment [4], the system named is Plasmodium falciparum. The experiment can be described thus: Antiplasmodial activity against Plasmodium falciparum NF54 infected in human erythrocytes assessed as decrease in parasitemia measured on day 4 post-treatment by geimsa staining (reference value: 3.28 +/- 0.11%). Type of experiment: functional. Set-up: scale not given: the % may be the effect or the level left.

The subject of experiment [5] is Plasmodium falciparum. The experiment in a line: Antiplasmodial activity against Plasmodium falciparum NF54 infected in human erythrocytes assessed as decrease in parasitemia measured on day 3 post-treatment by geimsa staining (reference value: 2.18 +/- 0.17%). The format is functional. Set-up: scale not given: the % may be the effect or the level left.

Each structure is given as a SMILES string. Activity calls are given as the source filed them. The calls are words filed in the database; no cut-off is given here.

In general, IC50 refers to the concentration needed to halve the response being measured.

`CCCc1ccc(-c2ccc(NC3=C(Br)C(=O)c4ncccc4C3=O)cc2)cc1` displayed an IC50 in experiment [1] of 3 µM.
As for `Cc1ccc2c(n1)C(=O)C=C(N1CCN(c3ccccc3)CC1)C2=O`, the Activity came out at 0.43% in experiment [2], 0.25% in experiment [3], 0% in experiment [4] and 0.04% in experiment [5]. In experiment [1], this compound returned a 50% inhibitory concentration (IC50) of 3.96 µM.
As to `Cc1ccc2c(n1)C(=O)C(Br)=C(NN1CCN(NC3=C(Br)C(=O)c4nc(C)ccc4C3=O)CC1)C2=O`, the Activity in experiment [2] was determined as 0.65%; in experiment [3], 0.49%; in experiment [4], 0%; in experiment [5], 0.05%. In experiment [1], this compound had an IC50 of 3.93 µM.
As to `Cc1ccc2c(n1)C(=O)C(Br)=C(NN1CCN(N)CC1)C2=O`, the Activity is 0.48% in experiment [2], 0.28% in experiment [3], 0% in experiment [4] and 0.07% in experiment [5]. The compound further yielded a 50% inhibitory concentration (IC50) in experiment [1] of 4.1 µM.
For the compound `O=C1C(O)=C(N2CCN(c3ccccc3)CC2)C(=O)c2ccccc21`, the Activity in experiment [2] worked out at 0.5%; in experiment [3], 0.26%; in experiment [4], 0%; in experiment [5], 0.03%. Also, half-maximal inhibition in experiment [1] (IC50) was put at 3.89 µM.
In turn, `Cc1ccc2c(Br)cc(Br)c(O)c2n1` [BROQUINALDOL] came in with a half-inhibitory concentration (IC50) in experiment [1] of 7.54 µM.
Take `CCCc1ccc(-c2ccc(NC3=C(Br)C(=O)c4nc(C)ccc4C3=O)cc2)cc1`: the Activity was found to be 0.42% in experiment [2], 0.19% in experiment [3], 0% in experiment [4] and 0.05% in experiment [5]. In experiment [1], 4.37 µM corresponded to half-maximal inhibition (IC50).
`Cc1ccc2c(n1)C(=O)C(Br)=C(N1CCN(c3ccccc3)CC1)C2=O`: the Activity turned out to be 0.46% in experiment [2], 0.29% in experiment [3], 0% in experiment [4] and 0% in experiment [5]. Also, the 50% inhibitory concentration (IC50) in experiment [1] was found to be 2.21 µM.
As for `CCN(CC)CCCC(C)Nc1ccnc2cc(Cl)ccc12` (configuration not stated) [CHLOROQUINE], the Activity in experiment [2] amounted to 0.06%; in experiment [3], 0%; in experiment [4] it was 0%; in experiment [5], 0%.
For the compound `Oc1c(Br)cc(Br)c2cccnc12`, the result in experiment [1] was inactive.

These data come from ChEMBL document CHEMBL2040840, “New quinoline-5,8-dione and hydroxynaphthoquinone derivatives inhibit a chloroquine resistant Plasmodium falciparum strain” (Eur J Med Chem, 2012).
